Experimental data from paper PMC10485820 (European Journal of Pharmaceutical Sciences, 2023).
Converted amounts (≈) assume the structure as drawn.

Legend:
[1] = physchem
Excerpt: (§1) Based on the results of the two-stage biorelevant dissolution test (see Fig. 4 in 3.2 section), the precipitation parameters in the DLM were not assessed, and the critical supersaturation ratio (CSC) and precipitation rate constant (PRC) were set to the minimum values, respectively.
(§2) Furthermore, solubility parameters, representing the influence of pH and bile salts on the solubility, were estimated by Eq. (3) according to the experimental results.
(§3) Accordingly, it was unnecessary to evaluate the precipitation parameters for the development of DLM, which (CSC and PCR) were set to minimum values in DLM. Most importantly, the dissolution parameters, such as heff and DLMs, were estimated by Eq. (4) from the dissolution profile in 300 mL FaSSGF medium. Meanwhile, the disintegration lag time of the formulation was evaluated with the method of Weibull function, so that the dissolution profile could be captured by Eq. (4).

[2] = test system: glycosylated hemoglobin; test: Multidose exploratory clinical study of T2DM patients (CTR20182505): glycosylated hemoglobin; type: in vivo, human; conditions: after six doses of oral administration
[3] = target: T1, OCT2 (Homo sapiens, UniProt O15244); test: Preclinical transporter substrate assessment (unpublished); type: in vitro ADME
T1 sequence (O15244 1-555): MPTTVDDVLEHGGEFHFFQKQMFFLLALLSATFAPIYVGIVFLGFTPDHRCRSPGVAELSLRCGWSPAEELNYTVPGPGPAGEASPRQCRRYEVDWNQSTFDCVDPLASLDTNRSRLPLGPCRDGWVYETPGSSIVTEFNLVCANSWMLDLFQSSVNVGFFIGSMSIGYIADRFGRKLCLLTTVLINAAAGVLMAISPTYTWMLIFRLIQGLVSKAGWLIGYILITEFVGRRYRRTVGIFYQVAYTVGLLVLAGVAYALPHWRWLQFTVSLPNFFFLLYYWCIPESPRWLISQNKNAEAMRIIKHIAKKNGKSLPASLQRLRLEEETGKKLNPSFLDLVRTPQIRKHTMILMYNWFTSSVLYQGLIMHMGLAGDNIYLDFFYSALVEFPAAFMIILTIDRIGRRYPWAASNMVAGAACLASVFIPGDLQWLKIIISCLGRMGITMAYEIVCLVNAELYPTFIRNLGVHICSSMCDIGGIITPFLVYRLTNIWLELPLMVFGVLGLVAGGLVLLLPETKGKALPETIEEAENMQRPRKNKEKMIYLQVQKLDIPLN

[4] = HSK7653 PBPK model development and fitting (SimCYP); parameters: species or system human; conditions: Fitted (based on in vivo data)
Excerpt: The development of the DLM was complex.
In this manuscript, we constructed the ADAM absorption model using the dissolution profile method and DLM method, respectively. The same disposition model was severally coupled with these two different absorption models to capture the absorption and disposition characteristics of HSK7653 in vivo. Here, we collected the CLint_hep and CLR from in vitro experimental results and in vivo clinical trial data without further optimization. […] Therefore, the disposition model of HSK7653 could accurately capture the elimination characteristics of HSK7653 in vivo. […] Furthermore, the models were also validated with PK data from a multiple dose clinical study (CTR20191549). […] Accordingly, the mechanism driven HSK7653 PBPK model can be used to simulate untested scenarios in specific populations.

[5] = target: T2, OAT1 (Homo sapiens, UniProt Q4U2R8); test: Preclinical transporter substrate assessment (unpublished); type: in vitro ADME
T2 sequence (Q4U2R8 1-563): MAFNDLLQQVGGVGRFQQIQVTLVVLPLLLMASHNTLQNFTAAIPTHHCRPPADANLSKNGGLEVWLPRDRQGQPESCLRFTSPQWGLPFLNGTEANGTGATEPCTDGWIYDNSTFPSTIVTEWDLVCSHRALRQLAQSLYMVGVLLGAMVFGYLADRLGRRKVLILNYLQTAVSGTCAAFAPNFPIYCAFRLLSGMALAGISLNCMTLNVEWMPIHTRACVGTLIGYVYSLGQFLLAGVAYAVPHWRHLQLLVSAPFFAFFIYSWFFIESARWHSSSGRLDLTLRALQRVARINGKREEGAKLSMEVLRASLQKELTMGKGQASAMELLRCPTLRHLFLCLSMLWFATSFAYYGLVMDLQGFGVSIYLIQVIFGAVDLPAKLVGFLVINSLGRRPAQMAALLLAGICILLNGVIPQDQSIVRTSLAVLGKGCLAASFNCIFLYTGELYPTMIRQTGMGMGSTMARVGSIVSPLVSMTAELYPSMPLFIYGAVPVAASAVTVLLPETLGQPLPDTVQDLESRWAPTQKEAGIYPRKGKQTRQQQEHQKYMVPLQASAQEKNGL

[6] = Radioactivity recovery in feces after oral administration to rats (unpublished); type: in vivo
[7] = Bioavailability in beagle dogs (unpublished); conditions: dog, in vivo, oral
[8] = target: T3, OCT3 (Homo sapiens, UniProt O75751); test: Preclinical transporter substrate assessment (unpublished); type: in vitro ADME
T3 sequence (O75751 1-556): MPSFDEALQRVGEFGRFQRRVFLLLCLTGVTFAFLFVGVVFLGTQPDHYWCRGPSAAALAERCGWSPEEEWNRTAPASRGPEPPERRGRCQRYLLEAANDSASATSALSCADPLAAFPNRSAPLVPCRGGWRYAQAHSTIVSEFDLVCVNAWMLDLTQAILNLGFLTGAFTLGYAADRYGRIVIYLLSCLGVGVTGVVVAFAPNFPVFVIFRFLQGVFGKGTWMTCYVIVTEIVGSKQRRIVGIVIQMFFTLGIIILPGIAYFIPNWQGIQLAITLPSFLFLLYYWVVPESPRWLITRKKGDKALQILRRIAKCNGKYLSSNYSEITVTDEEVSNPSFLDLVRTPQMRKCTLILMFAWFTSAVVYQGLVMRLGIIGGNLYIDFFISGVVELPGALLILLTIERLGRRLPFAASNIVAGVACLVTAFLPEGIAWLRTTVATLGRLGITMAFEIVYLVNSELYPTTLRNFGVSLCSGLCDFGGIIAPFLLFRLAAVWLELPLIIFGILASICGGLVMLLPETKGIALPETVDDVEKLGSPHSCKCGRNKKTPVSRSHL

[9] = Mass balance study (CTR20201559); type: in vivo, human
[10] = Biliary drainage study in rats (unpublished); type: in vivo
[11] = Drug-drug interaction study of HSK7653 with metformin, multiple doses, Chinese healthy volunteers (CTR20191549): pharmacokinetics; conditions: human, in vivo, oral, Multiple dose (D1 35 mg; D8/D15/D22 25 mg) with metformin, fasted
[12] = Equilibrium solubility of the HSK7653 API in various media; type: physicochemical; conditions: 37 °C, thermodynamic from solid
Experimental: Tests were performed by adding an excess amount of API to vials and stirring continuously at a speed of 200 rpm for 24 h at 37 °C. The API concentration was detected once per minute by an in situ fiber-optic ultraviolet (UV) dissolution real-time monitoring system (Pion Scientific Instruments, Billerica, MA, USA). All measurements were performed with n = 3.

[13] = Predicted by SIVA from dissolution profile in FaSSGF
Excerpt: as §1, §2, §3

[14] = target: P-glycoprotein (P-gp) (Homo sapiens, UniProt P08183); test: Preclinical transporter substrate assessment (unpublished); type: in vitro ADME
P-glycoprotein (P-gp), sequence (P08183 whole entry): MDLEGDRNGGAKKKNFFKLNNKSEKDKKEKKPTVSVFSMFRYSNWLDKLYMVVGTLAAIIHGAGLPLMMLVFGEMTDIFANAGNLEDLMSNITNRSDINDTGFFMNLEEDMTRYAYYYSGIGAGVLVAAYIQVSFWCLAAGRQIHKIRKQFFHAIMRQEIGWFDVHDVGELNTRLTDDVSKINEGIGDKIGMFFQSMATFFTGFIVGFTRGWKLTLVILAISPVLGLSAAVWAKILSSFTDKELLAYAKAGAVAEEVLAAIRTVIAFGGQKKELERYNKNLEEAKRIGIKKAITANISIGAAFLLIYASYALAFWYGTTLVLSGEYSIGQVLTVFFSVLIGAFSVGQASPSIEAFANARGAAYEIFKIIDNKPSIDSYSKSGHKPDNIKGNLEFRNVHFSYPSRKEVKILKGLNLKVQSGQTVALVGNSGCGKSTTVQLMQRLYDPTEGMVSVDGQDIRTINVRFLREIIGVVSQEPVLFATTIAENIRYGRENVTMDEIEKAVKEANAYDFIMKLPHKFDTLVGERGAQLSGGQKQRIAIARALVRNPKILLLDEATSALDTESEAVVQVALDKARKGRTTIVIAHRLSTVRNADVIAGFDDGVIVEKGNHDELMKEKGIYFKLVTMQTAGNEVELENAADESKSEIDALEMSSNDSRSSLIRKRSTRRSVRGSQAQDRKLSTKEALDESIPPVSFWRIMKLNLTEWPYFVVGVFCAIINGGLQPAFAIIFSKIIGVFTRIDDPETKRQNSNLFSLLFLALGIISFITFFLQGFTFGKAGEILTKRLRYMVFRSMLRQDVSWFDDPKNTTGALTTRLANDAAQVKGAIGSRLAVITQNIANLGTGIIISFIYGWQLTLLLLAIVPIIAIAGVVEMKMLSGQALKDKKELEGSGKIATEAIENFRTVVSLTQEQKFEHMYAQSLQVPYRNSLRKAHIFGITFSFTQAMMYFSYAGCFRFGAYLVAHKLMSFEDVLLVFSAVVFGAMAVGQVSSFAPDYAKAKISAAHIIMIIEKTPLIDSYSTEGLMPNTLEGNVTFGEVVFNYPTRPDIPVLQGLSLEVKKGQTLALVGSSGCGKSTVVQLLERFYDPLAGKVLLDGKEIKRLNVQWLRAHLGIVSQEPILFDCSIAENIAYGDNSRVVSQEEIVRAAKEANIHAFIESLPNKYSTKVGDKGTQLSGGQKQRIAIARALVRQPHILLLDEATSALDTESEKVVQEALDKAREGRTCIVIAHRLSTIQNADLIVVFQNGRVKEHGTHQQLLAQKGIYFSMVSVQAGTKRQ

[15] = mass balance study, unpublished

solubility [1]: 7 µg/mL (≈ 15 µM)
Transporter substrate assessment [3]: not a common transport substrate
Biliary CLint (CLint_bile) [4]: 0.025 μL/min/10^6
Transporter substrate assessment [5]: not a common transport substrate
Radioactivity recovered in feces [6]: approximately 62.1%
bioavailability [7]: 70.9%
Transporter substrate assessment [8]: not a common transport substrate
Fecal excretion of unchanged compound ([9]; mass balance study): 7.40%
Unchanged drug excreted by the kidney ([9]; mass balance study): 68.1%
Unrecovered radioactive substances (unknown pathway) ([9]; mass balance study): 4.1%
Detected (recovered) radioactivity [9, 15]: 95.9%
Unextracted radioactive substrates in feces [9, 15]: 2.99%
Unextracted radioactive substrates in urine [9, 15]: 1.99%
Unextracted radioactivity in urine and feces (sum) ([9]; sum of unextracted radioactivity in urine and feces): approximately 4.98%
Radioactivity recovered in biliary drainage study [10]: approximately 16.6%
Cmax [11]: 533 ng/mL
clearance ([11]; read-out: CL Obs (converted)): 9.17 mL/min
Vd/F ([11]; read-out: VZ/F Obs): 1.08 L/kg
solubility at 24 h ([12]; fassgf or other biorelevant, FaSSGF medium): ~5310 µg/mL (≈ 11400 µM)
solubility at 24 h ([12]; FaSSIF medium): ~342 µg/mL (≈ 733 µM)
solubility thermodynamic at 24 h ([12]; pH 1.0 hydrochloric acid (HCl) solution, simulated gastric fluid, pH 1.0 HCl solution): 11600 µg/mL (≈ 24800 µM)
solubility thermodynamic at 24 h ([12]; pH 8.0 phosphate buffer saline (PBS), aqueous buffer, pH 8.0 PBS): 120 µg/mL (≈ 257 µM)
DLM Scalar values ([13]; All segments): 3.009
heff cut-off value ([13]; Hintz-Johnson): 36.345 μm
Transporter substrate assessment [14]: not a common transport substrate
Compound: CS(=O)(=O)n1cc2c(n1)CN([C@@H]1C[C@H](N)[C@@H](c3cc(F)ccc3F)O[C@@H]1C(F)(F)F)C2 [HSK7653]
Glycosylated hemoglobin change [2]: significantly reduced
